Assay results: article PMC8125976, “The Total Solubility of the Co-Solubilized PAHs with Similar Structures Indicated by NMR Chemical Shift” (Molecules, 2021)
Converted amounts (≈) assume the structure as drawn.

How the values were obtained:
[1] = Solubilization of PAHs in SDS micellar solutions (1H-NMR quantification, MSR); conditions: for MSR (molar solubilization ratio): SDS 40-120 mM in D2O, 25 °C; for Synergistic/inhibitory level (RΔMSR), in words / solubility increase (RΔMSR) compared to single system: SDS
Excerpt: (§1) Molar solubilization ratio (MSR) is used to evaluate the solubilization potential of a surfactant, which is the molar concentration of the solubilized compound per mole of the surfactant concentration when the surfactant concentration is above CMC [37, 38], expressed by: (1) MSR=S−SCMC/C−CMC where S is the apparent solubility of a solute at the surfactant concentration of C, SCMC is the apparent solubility of the solute at CMC. Usually, the slope of the solubility with respect to the surfactant concentration can be considered to be MSR.
(§2) To compare the mutual effects of solutes in co-solubilization systems, the deviation ratio of MSR (RΔMSR) can be used to evaluate the effects of synergistic (RΔMSR > 0) or inhibitory (RΔMSR < 0), which can be expressed by: (2) RΔMSR%=MSRmixture−MSRsingle/MSRsingle×100% where MSRmixture and MSRsingle are the MSR values of solutes in the binary or ternary co-solubilization system and in the single solubilization system, respectively.
(§3) All reagents were used directly without further purification. First, a series of Tween 80 pure solutions at concentrations of 10, 20, 30, 40 and 50 mM and SDS pure solutions at concentrations of 40, 60, 80, 100 and 120 mM were prepared in D2O, respectively. These concentrations were set higher than their CMCs. The solubilization experiment was processed as follows: first, 8 equal 800 μL surfactant solutions at a certain surfactant concentration were injected into eight of 1.5 mL centrifuge cuitubes, respectively. One of them without the addition of PAHs was used as the blank control. […] Next, the surfactant solutions with PAHs solubilized were equilibrated on a reciprocating water bath oscillator at 200 rpm at 25 °C for 48 h. After equilibration, the above solutions were centrifuged at 10,000 rpm for 10 min. Finally, each of 600 μL of supernatant was transferred into 5 mm NMR tubes for further detection.
(§4) All NMR experiments were performed at 25 °C using a 500 MHz Agilent ProPulse NMR spectrometer (Agilent Technologies, Santa Clara, CA, USA) equipped with a 5 mm XYZ indirect detection probe and z-direction gradient coils with a maximum nominal gradient strength of 60 G cm^−1. The pulse excitation angle of 30 ° and the relaxation delay time of 5 s in ^1H-NMR experiments were chosen to assure the complete recovery of the magnetization and the accurate quantification. The Sodium Trimethylsilylpropionate (TSP) aqueous solution in the capillary was used as an external reference for the frequency and concentration calibration. […] Based on the resonance integral area of PAHs relative to that of TSP, we calculated their actual apparent concentrations. A total of 16 accumulations were used in 2D NOESY experiments, 1 s was chosen as mixing time.

[2] = Solubilization of PAHs in Tween 80 micellar solutions (1H-NMR quantification, MSR); conditions: for MSR (molar solubilization ratio): Tween 80 10-50 mM in D2O, 25 °C; for Synergistic/inhibitory level (RΔMSR), in words: Tween 80
Excerpt: as §1, §2, §3
as §4, with “time. […] Due to the high growth rate of rotating frame overhauser effect (ROE) than that of NOE, ROESY experiments for Tween 80 systems were conducted instead of NOESY to avoid the possible spin diffusion effect in NOESY with the long mixing time. The parameters of the 2D ROESY experiments were the same as the NOESY experiments except that the mixing time was 0.2 s. MestReNova software (version 14.0.0, Mestrelab Research, Santiago de Compostella, Spain) was used to process all NMR data.” for “time.”

[3] = water; cited from earlier work
[4] = binary Ant-Pyr system vs single
[5] = binary Phe-Ant system vs single
[6] = ternary Phe-Ant-Pyr system vs single
[7] = binary Phe-Pyr system vs single

Structure (SMILES): c1ccc2cc3ccccc3cc2c1 [Ant, anthracene]
- MSR (molar solubilization ratio) ([1]; binary Ant-Pyr system): 0.0011
- MSR (molar solubilization ratio) ([1]; binary Phe-Ant system): 0.0011
- MSR (molar solubilization ratio) ([1]; single solubilization system): 0.0011
- MSR (molar solubilization ratio) ([1]; ternary Phe-Ant-Pyr system): 0.0013
- Synergistic/inhibitory level (RΔMSR), in words [1, 4]: neither Phe nor Pyr contributes to the solubility increase
- Synergistic/inhibitory level (RΔMSR), in words [1, 5]: neither Phe nor Pyr contributes to the solubility increase
- Synergistic/inhibitory level (RΔMSR), in words [1, 6]: slight synergism
- MSR (molar solubilization ratio) ([2]; binary Ant-Pyr system): 0.0081
- MSR (molar solubilization ratio) ([2]; binary Phe-Ant system): 0.0084
- MSR (molar solubilization ratio) ([2]; single solubilization system): 0.0094
- MSR (molar solubilization ratio) ([2]; ternary Phe-Ant-Pyr system): 0.0080
- Synergistic/inhibitory level (RΔMSR), in words [2, 4]: slight inhibition
- Synergistic/inhibitory level (RΔMSR), in words [2, 5]: slight inhibition
- Synergistic/inhibitory level (RΔMSR), in words [2, 6]: slight inhibition

Structure (SMILES): c1ccc2c(c1)ccc1ccccc12 [Phe, phenanthrene]
- aqueous solubility [3]: 5.55 µM (≈ 0.989 µg/mL)
- MSR (molar solubilization ratio) ([1]; binary Phe-Ant system): 0.0095
- MSR (molar solubilization ratio) ([1]; binary Phe-Pyr system): 0.0157
- MSR (molar solubilization ratio) ([1]; single solubilization system): 0.0089
- MSR (molar solubilization ratio) ([1]; ternary Phe-Ant-Pyr system): 0.0166
- Synergistic/inhibitory level (RΔMSR), in words [1, 5]: synergism
- solubility increase (RΔMSR) compared to single system ([1]; binary Phe-Pyr system): 76.4%
- Synergistic/inhibitory level (RΔMSR), in words [1, 7]: synergism
- solubility increase (RΔMSR) compared to single system ([1]; ternary Phe-Ant-Pyr system): 86.5%
- Synergistic/inhibitory level (RΔMSR), in words [1, 6]: synergism
- MSR (molar solubilization ratio) ([2]; binary Phe-Ant system): 0.0894
- MSR (molar solubilization ratio) ([2]; binary Phe-Pyr system): 0.1216
- MSR (molar solubilization ratio) ([2]; single solubilization system): 0.1170
- MSR (molar solubilization ratio) ([2]; ternary Phe-Ant-Pyr system): 0.0694
- Synergistic/inhibitory level (RΔMSR), in words [2, 5]: inhibition
- Synergistic/inhibitory level (RΔMSR), in words [2, 7]: synergism
- Synergistic/inhibitory level (RΔMSR), in words [2, 6]: inhibition
